# From ChEMBL document CHEMBL1201862, “PubChem BioAssay data set” (2004)
# Activity calls are given as the source filed them.
# Key:
# Fatty acid synthase [1] = target: T1, Fatty acid synthase (Homo sapiens, UniProt P49327); assay: FAS thioesterase domain inhibitors, dose response, biochemical, kinetic fluorescence intensity (AID 624326); format: functional;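 note: rate of fluorescence rise from hydrolysis of a fluorogenic O-methyl fluorescein ester substrate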
# Fatty acid synthase [2] = target: T1, Fatty acid synthase; assay: FAS thioesterase domain inhibitors, dose response, biochemical, endpoint fluorescence intensity, uHTS hits (AID 624327); format: functional;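 note: fluorescence from hydrolysis of an O-methyl fluorescein acyl ester substrate by the enzyme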
# [3] = target: T2, Sentrin-specific protease 7 (Homo sapiens, UniProt Q9BQF6); format: functional;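 note: Luminescence-based dose-response confirmation of ultra-high-throughput screening hits, measuring inhibition of SENP7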
# T2 sequence (Q9BQF6 whole entry): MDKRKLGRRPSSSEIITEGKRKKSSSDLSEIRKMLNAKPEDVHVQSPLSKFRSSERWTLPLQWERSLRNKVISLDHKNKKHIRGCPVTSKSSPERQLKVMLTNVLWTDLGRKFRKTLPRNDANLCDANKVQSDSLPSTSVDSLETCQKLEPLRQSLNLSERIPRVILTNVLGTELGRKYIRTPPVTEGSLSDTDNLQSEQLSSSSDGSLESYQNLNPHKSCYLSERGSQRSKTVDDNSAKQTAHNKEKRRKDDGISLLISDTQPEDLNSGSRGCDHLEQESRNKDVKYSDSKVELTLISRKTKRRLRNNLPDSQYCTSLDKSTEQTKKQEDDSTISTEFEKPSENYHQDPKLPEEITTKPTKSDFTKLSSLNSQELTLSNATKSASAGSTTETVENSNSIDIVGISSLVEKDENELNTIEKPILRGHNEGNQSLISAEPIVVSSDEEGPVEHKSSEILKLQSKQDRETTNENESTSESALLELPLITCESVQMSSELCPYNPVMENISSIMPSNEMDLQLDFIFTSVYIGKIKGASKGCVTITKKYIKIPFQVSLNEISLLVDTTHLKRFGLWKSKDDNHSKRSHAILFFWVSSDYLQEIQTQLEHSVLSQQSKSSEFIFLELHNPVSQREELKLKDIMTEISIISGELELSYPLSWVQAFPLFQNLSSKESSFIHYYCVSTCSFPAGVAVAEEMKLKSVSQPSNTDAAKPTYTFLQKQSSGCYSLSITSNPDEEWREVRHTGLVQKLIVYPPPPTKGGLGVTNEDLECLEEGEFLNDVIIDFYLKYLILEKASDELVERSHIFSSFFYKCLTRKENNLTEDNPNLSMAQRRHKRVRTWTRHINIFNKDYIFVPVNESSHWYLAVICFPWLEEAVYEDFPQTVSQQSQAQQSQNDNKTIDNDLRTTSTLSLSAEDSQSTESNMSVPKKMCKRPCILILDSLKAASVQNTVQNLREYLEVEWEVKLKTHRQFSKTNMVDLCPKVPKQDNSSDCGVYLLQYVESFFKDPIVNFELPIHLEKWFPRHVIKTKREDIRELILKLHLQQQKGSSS
# [4] = target: T3, Sentrin-specific protease 6 (Homo sapiens, UniProt Q9GZR1); format: functional;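 note: Luminescence-based dose-response confirmatory assay of SENP6 inhibition, following up an ultra-high-throughput screen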
# T3 sequence (Q9GZR1 whole entry): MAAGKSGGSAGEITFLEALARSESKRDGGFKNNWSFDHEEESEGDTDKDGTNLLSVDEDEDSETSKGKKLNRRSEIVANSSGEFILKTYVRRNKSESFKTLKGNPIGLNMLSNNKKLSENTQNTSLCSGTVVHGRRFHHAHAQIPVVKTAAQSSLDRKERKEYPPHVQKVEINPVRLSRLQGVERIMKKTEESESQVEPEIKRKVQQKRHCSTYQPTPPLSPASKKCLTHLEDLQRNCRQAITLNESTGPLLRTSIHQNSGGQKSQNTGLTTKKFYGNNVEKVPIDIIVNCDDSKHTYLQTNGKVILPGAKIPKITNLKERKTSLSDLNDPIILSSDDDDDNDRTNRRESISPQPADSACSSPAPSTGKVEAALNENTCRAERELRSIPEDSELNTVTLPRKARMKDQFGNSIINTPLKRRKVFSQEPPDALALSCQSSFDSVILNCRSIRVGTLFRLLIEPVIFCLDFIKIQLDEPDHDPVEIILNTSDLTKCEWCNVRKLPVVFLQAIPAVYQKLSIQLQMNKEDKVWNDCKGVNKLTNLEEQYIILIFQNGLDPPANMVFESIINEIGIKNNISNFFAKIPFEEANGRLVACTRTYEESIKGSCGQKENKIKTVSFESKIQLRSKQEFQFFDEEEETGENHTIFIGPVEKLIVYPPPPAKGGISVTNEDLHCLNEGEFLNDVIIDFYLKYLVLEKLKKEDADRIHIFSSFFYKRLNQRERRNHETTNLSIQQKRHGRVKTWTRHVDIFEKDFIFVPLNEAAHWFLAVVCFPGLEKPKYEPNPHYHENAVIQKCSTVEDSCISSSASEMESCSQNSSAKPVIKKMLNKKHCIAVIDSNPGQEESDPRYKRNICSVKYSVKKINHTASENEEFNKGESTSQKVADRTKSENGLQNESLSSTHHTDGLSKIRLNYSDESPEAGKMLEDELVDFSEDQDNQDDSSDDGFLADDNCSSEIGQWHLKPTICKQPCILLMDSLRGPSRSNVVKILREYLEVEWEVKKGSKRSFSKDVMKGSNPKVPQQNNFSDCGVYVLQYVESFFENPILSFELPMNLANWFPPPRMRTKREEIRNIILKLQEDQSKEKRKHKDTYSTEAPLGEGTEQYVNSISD
# Caspase-3 = target: T4, Caspase-3 (Homo sapiens, UniProt P42574); format: functional;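 note: Dose-response selectivity test against caspase-3 for candidate inhibitors of sentrin-specific proteases (SENPs)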
# T4 sequence (P42574 whole entry): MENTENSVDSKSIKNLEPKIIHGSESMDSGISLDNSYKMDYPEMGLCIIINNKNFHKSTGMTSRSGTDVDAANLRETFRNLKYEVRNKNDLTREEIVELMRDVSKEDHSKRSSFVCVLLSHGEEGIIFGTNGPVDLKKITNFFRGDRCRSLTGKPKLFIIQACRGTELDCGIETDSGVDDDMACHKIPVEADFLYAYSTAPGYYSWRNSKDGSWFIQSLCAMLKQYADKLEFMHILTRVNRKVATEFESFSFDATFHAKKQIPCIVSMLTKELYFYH
# [5] = target: T5, Sentrin-specific protease 8 (Homo sapiens, UniProt Q96LD8); format: functional;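 note: luminescence read-out of SENP8 inhibition, dose-response confirmation following an ultra-high-throughput screen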
# T5 sequence (Q96LD8 whole entry): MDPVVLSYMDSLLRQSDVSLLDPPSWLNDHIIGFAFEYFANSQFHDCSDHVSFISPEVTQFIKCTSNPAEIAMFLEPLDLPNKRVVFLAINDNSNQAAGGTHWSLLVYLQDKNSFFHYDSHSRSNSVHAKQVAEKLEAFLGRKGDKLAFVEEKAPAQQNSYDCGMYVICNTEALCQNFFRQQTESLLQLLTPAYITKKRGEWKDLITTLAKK
# [6] = Luminescence Cell-Based Dose Response HTS to Identify Inhibitors of 5'UTR Stem-Loop Driven Prion Protein mRNA Translation in H4 Neuroglioblastoma Cells. [Related pubchem assays: 1827 (Project Summary), 1813 (Primary HTS)]; format: functional
# [7] = target: SWI/SNF-related matrix-associated actin-dependent regulator of chromatin subfamily A member 2 (Homo sapiens, UniProt P51531); assay: Luminescence-based cell-based high throughput dose response assay to identify activators of the function of SWI/SNF related, matrix associated, actin dependent regulator of chromatin, subfamily a, member 2 (SMARCA2, BRM).; format: functional
# Sequence of SWI/SNF-related matrix-associated actin-dependent regulator of chromatin subfamily A member 2 (P51531 whole entry): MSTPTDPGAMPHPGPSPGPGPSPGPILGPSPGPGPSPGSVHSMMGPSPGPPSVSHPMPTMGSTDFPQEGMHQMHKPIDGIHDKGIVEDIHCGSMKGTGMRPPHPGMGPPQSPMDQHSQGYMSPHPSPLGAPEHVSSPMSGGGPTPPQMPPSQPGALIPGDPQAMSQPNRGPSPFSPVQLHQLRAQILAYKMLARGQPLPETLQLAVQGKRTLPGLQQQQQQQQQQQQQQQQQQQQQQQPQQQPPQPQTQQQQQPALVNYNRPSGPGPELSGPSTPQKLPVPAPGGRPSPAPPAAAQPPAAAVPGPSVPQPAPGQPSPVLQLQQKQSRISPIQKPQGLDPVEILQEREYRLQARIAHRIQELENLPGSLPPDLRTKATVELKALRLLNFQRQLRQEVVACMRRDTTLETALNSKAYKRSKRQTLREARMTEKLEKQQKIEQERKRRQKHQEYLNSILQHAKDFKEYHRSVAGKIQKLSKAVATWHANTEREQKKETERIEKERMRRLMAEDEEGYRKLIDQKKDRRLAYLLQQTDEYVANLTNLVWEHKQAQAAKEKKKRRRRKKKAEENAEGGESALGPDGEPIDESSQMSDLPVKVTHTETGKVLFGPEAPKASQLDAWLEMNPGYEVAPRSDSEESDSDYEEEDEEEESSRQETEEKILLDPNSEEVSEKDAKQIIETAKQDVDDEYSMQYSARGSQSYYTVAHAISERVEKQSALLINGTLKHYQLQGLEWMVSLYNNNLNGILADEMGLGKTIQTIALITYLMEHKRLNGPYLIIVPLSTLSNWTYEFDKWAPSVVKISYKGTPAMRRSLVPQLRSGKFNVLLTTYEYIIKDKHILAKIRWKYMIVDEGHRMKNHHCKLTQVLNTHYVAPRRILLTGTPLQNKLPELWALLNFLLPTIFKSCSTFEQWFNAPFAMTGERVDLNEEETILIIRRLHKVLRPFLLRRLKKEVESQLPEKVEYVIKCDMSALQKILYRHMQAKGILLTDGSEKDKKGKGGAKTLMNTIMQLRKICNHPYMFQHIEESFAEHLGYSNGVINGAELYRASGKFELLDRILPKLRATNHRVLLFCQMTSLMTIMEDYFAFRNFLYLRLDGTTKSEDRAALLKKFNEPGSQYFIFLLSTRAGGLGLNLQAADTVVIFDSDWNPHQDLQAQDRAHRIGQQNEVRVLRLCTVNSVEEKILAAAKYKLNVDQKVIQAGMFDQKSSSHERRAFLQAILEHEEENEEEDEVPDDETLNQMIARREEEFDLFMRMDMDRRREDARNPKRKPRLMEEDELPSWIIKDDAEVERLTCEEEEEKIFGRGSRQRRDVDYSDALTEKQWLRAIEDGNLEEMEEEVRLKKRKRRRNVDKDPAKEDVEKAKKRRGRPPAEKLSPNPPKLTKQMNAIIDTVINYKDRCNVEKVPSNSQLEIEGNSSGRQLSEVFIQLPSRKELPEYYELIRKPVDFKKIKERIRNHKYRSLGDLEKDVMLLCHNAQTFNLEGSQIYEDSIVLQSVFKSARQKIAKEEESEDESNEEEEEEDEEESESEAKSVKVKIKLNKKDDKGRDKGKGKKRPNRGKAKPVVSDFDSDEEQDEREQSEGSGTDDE
# [8] = inhibitors of firefly luciferase expression or activity, dose response, H4 neuroglioma cells, luminescence (AID 1990); format: functional, cell-based
# [9] = inhibitors of SNCA 5'UTR-driven reporter translation, confirmation, H4 neuroglioma cells, luminescence (AID 1988); format: functional, cell-based
# Paired box protein Pax-8 = Paired box protein Pax-8 (Homo sapiens, UniProt Q06710); assay: inhibitors of PAX8-driven TPO luciferase reporter, dose response, RMG-I cells, cherry-pick (AID 687027); format: functional, cell-based;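 note: luciferase reporter driven by Pax8 target thyroperoxidase promoter measured by SteadyGlo luminescence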
# Sequence of Paired box protein Pax-8 (Q06710 whole entry): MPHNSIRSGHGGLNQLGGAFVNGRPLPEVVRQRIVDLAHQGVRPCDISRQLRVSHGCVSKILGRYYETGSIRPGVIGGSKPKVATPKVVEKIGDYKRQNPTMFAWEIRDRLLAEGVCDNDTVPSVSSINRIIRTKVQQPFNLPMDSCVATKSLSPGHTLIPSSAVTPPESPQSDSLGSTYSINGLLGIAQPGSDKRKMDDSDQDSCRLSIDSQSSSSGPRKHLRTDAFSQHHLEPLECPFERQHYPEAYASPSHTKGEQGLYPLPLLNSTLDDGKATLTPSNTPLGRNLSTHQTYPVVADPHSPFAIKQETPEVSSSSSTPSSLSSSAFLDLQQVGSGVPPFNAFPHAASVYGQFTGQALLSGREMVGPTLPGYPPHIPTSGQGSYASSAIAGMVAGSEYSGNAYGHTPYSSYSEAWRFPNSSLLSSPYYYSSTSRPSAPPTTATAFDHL
# [10] = Counterscreen for activators of the function of SWI/SNF related, matrix associated, actin dependent regulator of chromatin, subfamily a, member 2 (SMARCA2, BRM): Luminescence-based cell-based high throughput dose response assay to identify non-selective compounds using the VP16 reporter assay.; format: functional
# Beta-lactamase [11] = target: T6, Beta-lactamase (Pseudomonas aeruginosa, UniProt Q79MP6); assay: […] counterscreen for selective VIM-2 inhibitors: dose response biochemical high throughput screening assay to identify inhibitors of IMP-1 metallo-beta-lactamase.
# T6 sequence (Q79MP6 whole entry): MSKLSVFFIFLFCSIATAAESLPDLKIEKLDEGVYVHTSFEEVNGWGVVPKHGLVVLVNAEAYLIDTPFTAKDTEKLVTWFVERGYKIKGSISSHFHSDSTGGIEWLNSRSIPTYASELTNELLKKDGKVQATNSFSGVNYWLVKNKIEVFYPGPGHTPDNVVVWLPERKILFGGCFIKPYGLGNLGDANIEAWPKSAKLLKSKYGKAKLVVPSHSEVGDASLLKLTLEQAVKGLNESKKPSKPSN
# Beta-lactamase [12] = target: T6, Beta-lactamase; assay: IMP-1 metallo-beta-lactamase inhibitors, dose response, selectivity assay for VIM-2 inhibitor project, biochemical, epi-absorbance (AID 1920)
# Beta-lactamase [13] = target: Beta-lactamase (Salmonella choleraesuis (strain SC-B67), UniProt Q5J463); assay: Epi-absorbance-based counterscreen for selective VIM-2 inhibitors: dose response biochemical high throughput screening assay to identify inhibitors of TEM-1 serine-beta-lactamase.
# Sequence of Beta-lactamase (Salmonella choleraesuis (strain SC-B67), UniProt Q5J463) (Q5J463 whole entry): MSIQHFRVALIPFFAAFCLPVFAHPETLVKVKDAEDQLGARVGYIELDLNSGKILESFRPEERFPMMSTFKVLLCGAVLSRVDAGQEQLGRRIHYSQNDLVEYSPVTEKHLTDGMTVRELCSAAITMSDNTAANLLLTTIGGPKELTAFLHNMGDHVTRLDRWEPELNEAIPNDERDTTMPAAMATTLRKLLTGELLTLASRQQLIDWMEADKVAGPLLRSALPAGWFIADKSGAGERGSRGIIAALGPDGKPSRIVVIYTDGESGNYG
# P388/ADR = assay: cells; format: functional; settings: Mus musculus
# P388 = assay: cells; format: functional; settings: Mus musculus
# SN12K1 = assay: cells; format: functional; settings: Homo sapiens
# [14] = target: T7, Endoribonuclease toxin MazF (Escherichia coli K-12, UniProt P0AE70); assay: fluorescent RNA oligo signal without MazF, dose response, counter-screen for MazEF activator project, biochemical, fluorescence, single-stranded RNase substrate (AID 588502); format: functional
# T7 sequence (P0AE70 whole entry): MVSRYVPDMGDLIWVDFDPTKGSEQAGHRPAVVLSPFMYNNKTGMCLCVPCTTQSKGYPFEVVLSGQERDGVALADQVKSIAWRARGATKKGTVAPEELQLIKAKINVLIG
# [15] = target: T7, Endoribonuclease toxin MazF; assay: MazF toxin RNase activators, dose response, biochemical, fluorescence, single-stranded RNA substrate, uHTS hits (AID 588481); format: functional
# T1 sequence (P49327 whole entry, the tested form may be a part): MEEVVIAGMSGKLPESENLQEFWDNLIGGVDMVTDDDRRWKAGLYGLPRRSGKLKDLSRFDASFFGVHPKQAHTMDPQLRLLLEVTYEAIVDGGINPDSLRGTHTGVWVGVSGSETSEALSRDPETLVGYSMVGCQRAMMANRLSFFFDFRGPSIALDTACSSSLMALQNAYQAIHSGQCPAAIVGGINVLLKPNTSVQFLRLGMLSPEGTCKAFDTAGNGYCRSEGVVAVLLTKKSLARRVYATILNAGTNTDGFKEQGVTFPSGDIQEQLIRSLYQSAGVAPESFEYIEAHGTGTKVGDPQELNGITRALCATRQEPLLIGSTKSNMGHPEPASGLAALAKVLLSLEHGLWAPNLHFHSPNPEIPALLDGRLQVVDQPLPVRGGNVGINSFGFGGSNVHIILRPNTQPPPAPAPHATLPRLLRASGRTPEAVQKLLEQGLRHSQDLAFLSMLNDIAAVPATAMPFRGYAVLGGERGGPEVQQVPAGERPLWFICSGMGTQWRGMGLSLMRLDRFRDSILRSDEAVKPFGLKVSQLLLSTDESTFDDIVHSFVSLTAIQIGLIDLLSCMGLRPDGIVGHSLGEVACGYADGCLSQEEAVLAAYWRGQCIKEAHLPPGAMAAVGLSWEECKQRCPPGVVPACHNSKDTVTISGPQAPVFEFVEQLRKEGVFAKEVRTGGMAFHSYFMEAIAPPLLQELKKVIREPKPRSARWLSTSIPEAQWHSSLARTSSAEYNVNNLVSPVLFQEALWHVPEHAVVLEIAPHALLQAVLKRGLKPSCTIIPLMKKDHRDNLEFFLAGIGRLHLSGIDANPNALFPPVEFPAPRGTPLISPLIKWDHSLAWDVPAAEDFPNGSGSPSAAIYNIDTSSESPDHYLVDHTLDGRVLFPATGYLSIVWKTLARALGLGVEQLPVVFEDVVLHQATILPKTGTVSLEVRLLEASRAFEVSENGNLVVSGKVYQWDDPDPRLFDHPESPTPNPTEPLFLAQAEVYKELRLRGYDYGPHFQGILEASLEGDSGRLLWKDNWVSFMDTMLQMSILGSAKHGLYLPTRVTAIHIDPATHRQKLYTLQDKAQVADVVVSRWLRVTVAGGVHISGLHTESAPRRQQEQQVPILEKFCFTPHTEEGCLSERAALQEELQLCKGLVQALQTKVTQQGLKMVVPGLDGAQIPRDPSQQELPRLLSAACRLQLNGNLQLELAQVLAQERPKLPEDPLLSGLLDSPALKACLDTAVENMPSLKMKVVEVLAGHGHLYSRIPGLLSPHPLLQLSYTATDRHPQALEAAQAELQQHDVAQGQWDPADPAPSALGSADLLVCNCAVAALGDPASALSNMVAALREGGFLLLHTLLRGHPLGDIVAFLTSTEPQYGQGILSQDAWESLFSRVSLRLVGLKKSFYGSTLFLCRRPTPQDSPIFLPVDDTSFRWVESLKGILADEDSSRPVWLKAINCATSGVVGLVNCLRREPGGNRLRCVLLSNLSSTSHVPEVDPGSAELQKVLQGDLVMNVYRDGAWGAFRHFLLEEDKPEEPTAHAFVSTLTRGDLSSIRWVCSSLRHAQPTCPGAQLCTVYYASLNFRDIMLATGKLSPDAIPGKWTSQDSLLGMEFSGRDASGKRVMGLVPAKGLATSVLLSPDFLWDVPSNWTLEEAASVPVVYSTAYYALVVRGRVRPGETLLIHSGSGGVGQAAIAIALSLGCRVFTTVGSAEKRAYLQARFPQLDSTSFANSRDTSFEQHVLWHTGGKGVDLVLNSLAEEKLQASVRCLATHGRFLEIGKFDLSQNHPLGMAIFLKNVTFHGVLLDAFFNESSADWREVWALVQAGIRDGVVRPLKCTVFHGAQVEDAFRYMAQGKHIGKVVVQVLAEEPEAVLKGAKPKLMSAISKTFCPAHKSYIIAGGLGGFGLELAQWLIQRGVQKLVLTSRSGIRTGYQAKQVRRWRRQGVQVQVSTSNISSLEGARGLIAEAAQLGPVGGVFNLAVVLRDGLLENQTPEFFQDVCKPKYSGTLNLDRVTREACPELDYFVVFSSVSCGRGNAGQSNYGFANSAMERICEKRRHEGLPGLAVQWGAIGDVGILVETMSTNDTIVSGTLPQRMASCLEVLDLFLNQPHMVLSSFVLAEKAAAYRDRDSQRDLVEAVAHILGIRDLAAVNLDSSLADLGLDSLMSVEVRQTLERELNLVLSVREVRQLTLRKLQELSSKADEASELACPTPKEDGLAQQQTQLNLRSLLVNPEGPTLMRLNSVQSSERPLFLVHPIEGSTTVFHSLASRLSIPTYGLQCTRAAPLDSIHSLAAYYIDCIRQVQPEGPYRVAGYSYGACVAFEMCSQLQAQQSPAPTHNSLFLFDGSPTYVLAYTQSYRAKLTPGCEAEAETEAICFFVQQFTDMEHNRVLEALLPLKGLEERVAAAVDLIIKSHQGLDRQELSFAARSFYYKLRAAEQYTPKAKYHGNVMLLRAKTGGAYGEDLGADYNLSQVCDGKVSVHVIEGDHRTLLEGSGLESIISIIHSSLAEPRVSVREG
smiles,measurement,setting,value
COc1ccc([N+](=O)[O-])cc1NC(=O)C(C)OC(=O)CC1CCCC1 (stereo not given),IC50,Fatty acid synthase [1],5.28 µM (active)
same,IC50,Fatty acid synthase [2],6.83 µM (active)
NC(=O)c1ccccc1NC(=O)/C=C/c1c(Cl)cccc1Cl,IC50,[3],6.11 µM (active)
same,IC50,[4],> 100 µM (inactive)
same,IC50,Caspase-3,21.5 µM (active)
same,IC50,[5],> 100 µM (inactive)
CC(C)C(=O)Nc1ccc2nn(-c3ccc(F)cc3)nc2c1,IC50,[3],3.03 µM (active)
same,IC50,[4],6.19 µM (active)
same,IC50,Caspase-3,8.48 µM (active)
same,IC50,[5],41.3 µM (active)
Cc1cc(C(=O)N/N=C/C(Cl)=C/c2ccccc2)c(C)o1,IC50,[3],7.77 µM (active)
same,IC50,[4],22.6 µM (active)
same,IC50,Caspase-3,18.2 µM (active)
same,IC50,[5],> 100 µM (inactive)
CN(C)CCN(C(=O)/C=C/c1cccs1)c1nc2c(F)cc(F)cc2s1,EC50,[6],10.4 µM (active)
same,EC50,[7],> 91.1 µM (inactive)
same,EC50,[8],12.5 µM (active)
same,EC50,[9],8.47 µM (active)
same,AC50,Paired box protein Pax-8,8.86 µM (active)
same,EC50,[10],> 91.1 µM (inactive)
COC(=O)N/N=C(\C)c1ccccc1Br,EC50,[7],> 91.1 µM (inactive)
same,EC50,[10],> 91.1 µM (inactive)
CCn1c(O)c(N=Nc2ccc3ccccc3n2)c2ccccc21,IC50,[3],0.857 µM (active)
same,IC50,[4],1.11 µM (active)
same,IC50,Caspase-3,2.1 µM (active)
same,IC50,[5],1.83 µM (active)
COc1ccccc1C(=O)Nc1nnc(SCC(=O)NCc2ccco2)s1,IC50,Beta-lactamase [11],> 59.6 µM (inactive)
same,IC50,Beta-lactamase [12],> 59.6 µM (inactive)
same,IC50,Beta-lactamase [13],> 59.6 µM (inactive)
O=C1NC(O)CCN1C1OC(CO)C(O)C1O (stereo not given),GI50,P388/ADR,> 250 µM (inactive)
same,GI50,P388,> 250 µM (inactive)
same,GI50,SN12K1,> 250 µM (inactive)
CCCn1c(S)nnc1C(C)C,IC50,Beta-lactamase [11],> 59.6 µM (inactive)
same,IC50,Beta-lactamase [12],> 59.6 µM (inactive)
same,IC50,Beta-lactamase [13],> 59.6 µM (inactive)
O=C(CSc1nnc2scc(-c3ccccc3)n12)c1ccc2c(c1)OCCO2,EC50,[14],> 99 µM (inactive)
same,EC50,[15],> 99 µM (inactive)
CCCn1c(O)c(N=Nc2ccc3ccccc3n2)c2ccccc21,EC50,[14],> 99 µM (inactive)
same,EC50,[15],> 99 µM (inactive)
O=C1N[C@H]2[C@H](O)[C@H](O)[C@@H](O)[C@H](O)[C@@H]2c2cc3c(c(O)c21)OCO3 [PANCRATISTATIN],GI50,P388/ADR,0.0406 µM (active)
same,GI50,P388,0.0366 µM (active)
same,GI50,SN12K1,0.047 µM (active)
COC(=O)c1ccc(NC(=O)Nc2ccc(F)c(Cl)c2)cc1,IC50,[3],6.56 µM (active)
same,IC50,[4],> 100 µM (inactive)
same,IC50,Caspase-3,48 µM (active)
same,IC50,[5],> 100 µM (inactive)
CCCCC(CC)C(=O)Nc1cc([N+](=O)[O-])ccc1F (stereo not given),IC50,Fatty acid synthase [1],4.44 µM (active)
same,IC50,Fatty acid synthase [2],3.19 µM (active)
CC(C)=CCc1cc(-c2oc3cc(O)cc(O)c3c(=O)c2O)ccc1O [ISOLICOFLAVONOL],EC50,[14],> 99 µM (inactive)
same,EC50,[15],14 µM (active)
OC(C1CO1)C(O)C1CO1 (stereo not given),GI50,P388/ADR,9.79 µM (inactive)
same,GI50,P388,13.5 µM (inactive)
same,GI50,SN12K1,54.7 µM (inactive)
CC(C)(C)C(=O)OCc1ccc(C2=CC(=O)CC(C)(C)C2=O)cc1,IC50,Fatty acid synthase [1],3.9 µM (active)
same,IC50,Fatty acid synthase [2],1.28 µM (active)
COCCN1CCN(c2c(C)c(C)nc3cc(-c4cccc(OC)c4)nn23)CC1,EC50,[7],> 91.1 µM (inactive)
same,EC50,[10],> 91.1 µM (inactive)
CC/C=C\C/C=C\C/C=C\CCCCCCCC(=O)OC [METHYL LINOLENATE],GI50,P388/ADR,28.2 µM (inactive)
same,GI50,P388,> 10 µM (inactive)
same,GI50,SN12K1,> 100 µM (inactive)
